Laboratory results: patent US7696383B2 (Solvay Pharmaceuticals B.V., priority 2007, dated 2010)
Marks after values point to notes of the source that are not given here.

Assays:
[1] = target: norepinephrine reuptake sites (Homo sapiens, UniProt P23975); assay: In vitro affinity for norepinephrine reuptake sites; format: binding; details: for Ki: read-out: Noradrenaline binding pKi (converted)
[2] = target: serotonin reuptake sites (Homo sapiens, UniProt P31645); assay: In vitro affinity for serotonin reuptake sites; format: binding; details: for Ki: read-out: Serotonine binding pKi (converted)
Chain of serotonin reuptake sites (P31645 whole entry): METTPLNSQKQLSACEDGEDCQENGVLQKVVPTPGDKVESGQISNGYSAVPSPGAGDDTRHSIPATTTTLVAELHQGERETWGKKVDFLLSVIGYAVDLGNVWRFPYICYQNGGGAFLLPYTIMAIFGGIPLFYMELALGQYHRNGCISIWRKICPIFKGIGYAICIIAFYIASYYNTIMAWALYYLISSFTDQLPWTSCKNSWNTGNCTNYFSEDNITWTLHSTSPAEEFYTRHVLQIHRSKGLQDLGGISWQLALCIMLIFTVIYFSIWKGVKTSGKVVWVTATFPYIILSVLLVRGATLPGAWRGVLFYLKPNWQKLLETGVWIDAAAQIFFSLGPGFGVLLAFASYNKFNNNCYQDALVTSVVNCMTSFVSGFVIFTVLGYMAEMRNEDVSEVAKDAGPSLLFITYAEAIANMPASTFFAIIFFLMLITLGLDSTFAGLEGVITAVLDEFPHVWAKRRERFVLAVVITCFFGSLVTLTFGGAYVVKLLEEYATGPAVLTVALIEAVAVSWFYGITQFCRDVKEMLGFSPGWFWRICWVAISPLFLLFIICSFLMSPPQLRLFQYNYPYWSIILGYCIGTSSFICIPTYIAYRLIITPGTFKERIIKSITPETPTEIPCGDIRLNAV

[3] = target: T1, [3H]-dopamine reuptake (Rattus norvegicus, UniProt P23977); assay: In vitro functional inhibition of [3H]-dopamine reuptake, striatum synaptosomes; format: biochemical; details: for IC50: read-out: Dopamine inhibition pIC50 (converted)
T1 construct: the striatum was rapidly removed and a crude synaptosomal fraction (P2) was prepared; from tissue; host or cells: rat striatum, crude P2 synaptosomal fraction
T1 sequence (P23977 whole entry): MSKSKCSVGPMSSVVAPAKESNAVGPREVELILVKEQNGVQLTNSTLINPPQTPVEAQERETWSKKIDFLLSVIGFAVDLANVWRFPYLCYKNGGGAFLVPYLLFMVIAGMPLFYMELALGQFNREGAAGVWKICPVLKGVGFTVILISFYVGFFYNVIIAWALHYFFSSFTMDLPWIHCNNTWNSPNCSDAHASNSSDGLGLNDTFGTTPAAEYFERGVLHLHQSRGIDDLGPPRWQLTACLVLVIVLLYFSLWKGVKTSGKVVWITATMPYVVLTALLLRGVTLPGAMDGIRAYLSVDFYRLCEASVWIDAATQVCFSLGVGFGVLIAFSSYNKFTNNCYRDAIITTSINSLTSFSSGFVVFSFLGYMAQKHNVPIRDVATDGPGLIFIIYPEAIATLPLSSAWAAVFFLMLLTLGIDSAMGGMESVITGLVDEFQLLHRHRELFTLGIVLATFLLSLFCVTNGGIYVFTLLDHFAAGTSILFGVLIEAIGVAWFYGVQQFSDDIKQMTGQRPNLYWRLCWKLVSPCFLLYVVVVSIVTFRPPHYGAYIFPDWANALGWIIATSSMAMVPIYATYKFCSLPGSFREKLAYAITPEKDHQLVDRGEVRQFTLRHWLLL
Experimental: In vitro functional inhibition of [^3H]-dopamine reuptake: male rats (Wistar Hsd/Cpb: WU; 175-200 g) were decapitated; the striatum was rapidly removed and a crude synaptosomal fraction (P2) was prepared by homogenization and centrifugation. Synaptosomes were pre-incubated in absence or presence of the test compound for 15 min at 37° C., in a medium containing the monoamine oxidase inhibitor pargyline (7×10^−6 M) (Coyle, 1969). Subsequently, [^3H]-dopamine (2×10^−7 M final concentration) was added and incubation was continued for 10 min. [^3H]-dopamine uptake was stopped by filtration and the synaptosomes were washed four times with phosphate buffered saline. The amount of [^3H]-dopamine in the synaptosomes was determined by Betaplate liquid scintillation counting. […] Inhibition of DA uptake was performed in duplicate.

[4] = target: T2, [3H]-serotonin reuptake (Rattus norvegicus, UniProt P31652); assay: In vitro functional inhibition of [3H]-serotonin reuptake, cerebral hemisphere synaptosomes; format: biochemical; details: for IC50: read-out: Serotonine inhibition pIC50 (converted)
T2 construct: the cerebral hemispheres were rapidly removed, and a P2-synaptosomal fraction was prepared; from tissue; host or cells: rat cerebral hemispheres, P2 synaptosomal fraction
T2 sequence (P31652 whole entry): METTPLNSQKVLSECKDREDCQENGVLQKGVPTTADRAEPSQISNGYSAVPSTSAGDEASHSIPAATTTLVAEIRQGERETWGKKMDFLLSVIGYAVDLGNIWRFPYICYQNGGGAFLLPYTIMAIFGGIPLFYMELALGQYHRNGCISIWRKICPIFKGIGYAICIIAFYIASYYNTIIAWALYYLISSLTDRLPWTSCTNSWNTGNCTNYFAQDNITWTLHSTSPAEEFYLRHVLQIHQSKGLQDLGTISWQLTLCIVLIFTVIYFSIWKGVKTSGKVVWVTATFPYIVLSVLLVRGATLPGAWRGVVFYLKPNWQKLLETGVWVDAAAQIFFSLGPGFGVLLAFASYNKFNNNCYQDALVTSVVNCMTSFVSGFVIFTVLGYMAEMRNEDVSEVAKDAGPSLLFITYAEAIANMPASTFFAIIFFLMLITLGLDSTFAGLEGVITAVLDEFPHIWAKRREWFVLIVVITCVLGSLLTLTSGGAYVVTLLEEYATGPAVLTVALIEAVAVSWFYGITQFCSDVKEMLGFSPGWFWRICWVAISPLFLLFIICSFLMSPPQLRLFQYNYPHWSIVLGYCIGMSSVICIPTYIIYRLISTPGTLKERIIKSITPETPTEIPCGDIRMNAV
Experimental: (§1) Subsequently, the synaptosomes were exposed to [^3H]-serotonin ([…] final concentration) for 10 min. [^3H]-Serotonine uptake was stopped by filtration with a harvester and the non-incorporated radioactivity was removed by extensive washing. Filter plates with synaptosomes were dehydrated, and the amount of [^3H]-serotonin present was determined by Betaplate liquid scintillation counting.

[5] = target: T3, [3H]-norepinephrine reuptake (Rattus norvegicus, UniProt Q63380); assay: In vitro functional inhibition of [3H]-norepinephrine reuptake, hypothalamus synaptosomes; format: biochemical; details: for IC50: read-out: Noradrenaline inhibition pIC50 (converted)
T3 construct: the hypothalamus was rapidly removed and a crude synaptosomal fraction was prepared; from tissue; host or cells: rat hypothalamus, crude synaptosomal fraction
T3 sequence (Q63380 1-617): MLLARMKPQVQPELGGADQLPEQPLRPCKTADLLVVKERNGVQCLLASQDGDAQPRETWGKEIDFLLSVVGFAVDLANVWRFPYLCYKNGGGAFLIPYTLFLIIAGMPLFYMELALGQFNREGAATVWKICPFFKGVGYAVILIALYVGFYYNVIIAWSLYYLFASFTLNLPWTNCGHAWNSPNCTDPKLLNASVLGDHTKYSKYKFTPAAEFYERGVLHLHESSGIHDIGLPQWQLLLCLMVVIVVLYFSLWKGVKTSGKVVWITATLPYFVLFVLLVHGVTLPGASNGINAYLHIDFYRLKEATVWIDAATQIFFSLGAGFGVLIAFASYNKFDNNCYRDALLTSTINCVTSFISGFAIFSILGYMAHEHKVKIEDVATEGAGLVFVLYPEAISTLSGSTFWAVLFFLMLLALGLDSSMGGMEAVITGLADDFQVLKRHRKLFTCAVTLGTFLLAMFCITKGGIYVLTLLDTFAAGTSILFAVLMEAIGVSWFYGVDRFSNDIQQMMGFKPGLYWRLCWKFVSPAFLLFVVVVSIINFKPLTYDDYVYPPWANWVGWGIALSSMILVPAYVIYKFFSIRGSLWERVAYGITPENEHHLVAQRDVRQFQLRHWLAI
Experimental: In vitro functional inhibition of [^3H]-norepinephrine reuptake: male rats (Wistar Hsd/Cpb: WU; 175-200 g) were decapitated, the hypothalamus was rapidly removed and a crude synaptosomal fraction was prepared. Synaptosomes were pre-incubated in absence or presence of the test compound for 10 min at 37° C., in a medium containing the MAO inhibitor pargyline (7 μM). Subsequently, the synaptosomes were exposed to [^3H]-norepinephrine ([…] final concentration) for 15 min. [^3H]-Norepinephrine uptake was stopped by filtration with a harvester and the non-incorporated radioactivity was removed by an extensive washing programme. The filterplates with synaptosomes were dehydrated and the amount of [^3H]-norepinephrine present was determined by Betaplate liquid scintillation counting. […] Test compounds, 10^−2 M dissolved in DMSO, were diluted in Krebs Ringer buffer to test concentrations of 10^−8-10^−5 M. Further experimental details were as described (Coyle, 1969).

[6] = target: dopamine reuptake sites (Homo sapiens, UniProt Q01959); assay: In vitro affinity for dopamine reuptake sites; format: binding; details: for Ki: read-out: Dopamine binding pKi (converted)
Chain of dopamine reuptake sites (Q01959 whole entry): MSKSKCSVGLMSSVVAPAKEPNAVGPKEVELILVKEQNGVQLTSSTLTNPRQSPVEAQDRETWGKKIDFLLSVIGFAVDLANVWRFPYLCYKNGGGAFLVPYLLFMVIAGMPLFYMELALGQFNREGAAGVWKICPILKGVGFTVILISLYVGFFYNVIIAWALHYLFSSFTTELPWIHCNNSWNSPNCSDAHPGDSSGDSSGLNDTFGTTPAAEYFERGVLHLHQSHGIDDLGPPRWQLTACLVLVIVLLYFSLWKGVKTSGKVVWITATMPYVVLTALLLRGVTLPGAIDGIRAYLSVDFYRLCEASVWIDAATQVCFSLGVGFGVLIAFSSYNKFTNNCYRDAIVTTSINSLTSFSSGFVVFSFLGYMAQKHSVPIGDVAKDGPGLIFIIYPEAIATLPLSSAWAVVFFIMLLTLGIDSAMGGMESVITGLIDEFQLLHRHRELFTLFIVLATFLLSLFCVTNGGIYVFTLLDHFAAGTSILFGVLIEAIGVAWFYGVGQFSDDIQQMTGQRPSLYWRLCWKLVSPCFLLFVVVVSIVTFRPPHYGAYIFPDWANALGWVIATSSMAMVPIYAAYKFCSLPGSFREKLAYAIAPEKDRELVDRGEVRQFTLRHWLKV
Source text: (§2) In vitro affinity for neurotransmitter reuptake sites were either obtained by CEREP (128, rue Danton, 92500 Rueil-Malmaison, France) or at Solvay Pharmaceuticals B. V. (C. J. van Houtenlaan 36, 1381 CP Weesp, The Netherlands), using well documented procedures. Measured were affinities for serotonin (Tatsumi, 1999), norepinephrine (Pacholczyk, 1991) and dopamine reuptake sites (Pristupa, 1994).

[7] = system: dopamine, noradrenaline and serotonine reuptake; assay: In vitro pharmacology, summary in words over binding and reuptake inhibition
Experimental: as §2, §1
In vitro functional inhibition of [^3H]-norepinephrine reuptake: male rats (Wistar Hsd/Cpb: WU; 175-200 g) were decapitated, the hypothalamus was rapidly removed and a crude synaptosomal fraction was prepared. […] [^3H]-Norepinephrine uptake was stopped by filtration with a harvester and the non-incorporated radioactivity was removed by an extensive washing programme. The filterplates with synaptosomes were dehydrated and the amount of [^3H]-norepinephrine present was determined by Betaplate liquid scintillation counting. […]

[8] = in vivo; details: for AUC0→∞: Tend = ∞
Experimental: Proteins in 100 μl plasma were precipitated with acetonitrile, and 5 μl samples of the obtained solutions were analyzed. Complete brains were homogenized and centrifuged, and 10 μl samples of the supernatant were analyzed.
Liquid Chromatography-Tandem Mass Spectrometry (LC-MS/MS) was performed using a Sciex API4000 LC-MS/MS. Samples were quantified using extracted calibration samples, treated the same as the study samples, in the range of 1-5000 ng/ml and 5.0-5000 ng/brain for plasma and brain samples, respectively. Compound peak area was used for quantification. Calibration curves were fitted to the model y=A+Bx+Cx^2 (y is the peak area of the analyte, x is the nominal calibration level in ng/ml (plasma) or ng/g (brain), A is the intercept, B is the slope and C is the description of the curvature). 1/x^2 weighing was used. LC-MS/MS system performance was monitored using a reference solution injected at standard intervals. […] The Lower Limit Of Quantification (LLOQ) was established at 1.00 ng/ml and 5.00 ng/brain, for plasma and brain samples, respectively. Values below the LLOQ were given as best estimate. Reversed phase HPLC was performed using gradient elution by a Hypersil BDS C18 100×4.6 mm 3 μm analytical column, at 45° C. and with a flow of 1.00 ml/min: […]

[9] = Reduction of venlafaxine N-oxide in the human colon model TIM2; format: in vitro ADME; details: within 2 hours after dosing
Experimental: The human colon model TIM2 (TNO Intestinal Model 2): this model is a dynamic model for the human large intestine that simulates in vivo conditions. It is an artificial digestive system that has been validated by many studies (Minekus, 1999).
Suspended in 1% methylcellulose, venlafaxine-N-oxide (1 mg) was inserted into the lumen (120 ml) of the TIM2 model (see above, Minekus, 1999). Samples from the lumen and the dialysate (the latter being a model for the vascular bed of the intestines) were taken at various time intervals, and analyzed for venlafaxine-N-oxide and venlafaxine.

[10] = male, NMRI, mouse, in vivo, iv, 1 mg/kg
[11] = male, NMRI, mouse, in vivo, po, 10 mg/kg
[12] = male, NMRI, mouse, plasma, iv, 1 mg/kg
[13] = male, NMRI, mouse, plasma, po, 10 mg/kg
[14] = mice, labelled compound given 1.0 mg/kg i.v., 0.5 h
[15] = mice, labelled compound given 1.0 mg/kg i.v., 1 h
[16] = mice, labelled compound given 1.0 mg/kg i.v., 3 h
[17] = mice, labelled compound given 1.0 mg/kg i.v., 7 h
[18] = mice, labelled compound given 1.0 mg/kg i.v., 24 h
[19] = mice, labelled compound given 10 mg/kg p.o., 0.5 h
[20] = mice, labelled compound given 10 mg/kg p.o., 1 h
[21] = mice, labelled compound given 10 mg/kg p.o., 3 h
[22] = mice, labelled compound given 10 mg/kg p.o., 7 h
[23] = mice, labelled compound given 10 mg/kg p.o., 24 h

Chain of norepinephrine reuptake sites (P23975 whole entry): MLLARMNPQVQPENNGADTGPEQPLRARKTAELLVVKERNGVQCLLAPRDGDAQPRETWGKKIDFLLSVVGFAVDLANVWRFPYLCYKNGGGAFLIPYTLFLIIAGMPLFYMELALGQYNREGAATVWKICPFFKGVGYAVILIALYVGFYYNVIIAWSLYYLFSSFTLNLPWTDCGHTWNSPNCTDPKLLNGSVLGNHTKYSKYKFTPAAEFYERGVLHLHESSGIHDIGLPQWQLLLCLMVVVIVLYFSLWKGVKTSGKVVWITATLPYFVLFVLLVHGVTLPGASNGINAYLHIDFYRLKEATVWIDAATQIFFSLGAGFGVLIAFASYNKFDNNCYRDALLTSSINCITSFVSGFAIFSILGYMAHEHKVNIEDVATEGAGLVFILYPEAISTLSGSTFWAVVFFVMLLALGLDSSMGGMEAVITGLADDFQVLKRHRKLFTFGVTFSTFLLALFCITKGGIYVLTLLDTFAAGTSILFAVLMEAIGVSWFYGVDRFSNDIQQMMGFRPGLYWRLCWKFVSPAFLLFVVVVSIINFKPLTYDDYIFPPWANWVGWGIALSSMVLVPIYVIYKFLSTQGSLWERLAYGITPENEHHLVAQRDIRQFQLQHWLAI

C[N+](C)([O-])C[C@H](c1ccc(O)cc1)C1(O)CCCCC1 [(S)—O-desmethyl-venlafaxine-N-oxide, O-desmethyl-S-venlafaxine N-oxide]
Ki [1]: > 31.6 µM
Ki [2]: 12.6 µM
IC50 [3]: > 31.6 µM
IC50 [4]: 25.1 µM
IC50 [5]: > 31.6 µM
Ki [6]: > 31.6 µM

CN(C)CC(c1ccc(O)cc1)C1(O)CCCCC1 (racemic) [O-desmethylvenlafaxine, (R,S)-1-[2-(dimethylamino)-1-(4-hydroxyphenyl)ethyl]-cyclohexanol]
In vitro activity, in words [7]: equipotent with venlafaxine

CN(C)C[C@@H](c1ccc(O)cc1)C1(O)CCCCC1 [(R)—O-desmethyl-venlafaxine, O-desmethyl-R-Venlafaxine, reference compound]
IC50 [3]: 5.01 µM
IC50 [5]: 0.398 µM

CN(C)C[C@H](c1ccc(O)cc1)C1(O)CCCCC1 [(S)—O-desmethyl-venlafaxine, O-desmethyl-S-Venlafaxine, reference compound]
IC50 [3]: 10 µM
IC50 [5]: 0.398 µM

COc1ccc(C(CN(C)C)C2(O)CCCCC2)cc1 (racemic) [Venlafaxine, (R,S)-1-(2-(Dimethylamino)-1-(4-methoxyphenyl)ethyl)cyclohexanol, reference compound]
In vitro activity, in words [7]: most potent as inhibitor of serotonine reuptake
Kp [8, 10]: 3.1
half-life [8, 10]: 48 min
Kp [8, 11]: 3.4
half-life [8, 11]: 54 min
AUC [8, 12]: 194 ng·h/mL
AUC(0-inf) [8, 12]: 195 ng·h/mL
Cmax [8, 12]: 408 ng/mL
Tmax [8, 12]: 0 min
Vd [8, 12]: 6.2 L/kg
clearance [8, 12]: 85.6 mL/min/kg
bioavailability ([8]; male, NMRI, mouse, plasma, oral, 10 mg/kg): 48.7%
AUC [8, 13]: 943 ng·h/mL
AUC(0-inf) [8, 13]: 948 ng·h/mL
Cmax [8, 13]: 630 ng/mL
Tmax [8, 13]: 12 min
N-oxide found in brain ([8]; mice, after administration of venlafaxine): only traces

COc1ccc([C@H](C[N+](C)(C)[O-])C2(O)CCCCC2)cc1 [(R)-venlafaxine-N-oxide, R-Venlafaxine N-oxide]
Ki [1]: > 31.6 µM
Ki [2]: 7.94 µM
IC50 [3]: > 31.6 µM
IC50 [4]: 20 µM
IC50 [5]: 39.8 µM
Ki [6]: > 31.6 µM

COc1ccc([C@@H](C[N+](C)(C)[O-])C2(O)CCCCC2)cc1 [(S)-venlafaxine-N-oxide, S-Venlafaxine N-oxide]
Ki [1]: > 31.6 µM
Ki [2]: 6.31 µM
IC50 [3]: > 31.6 µM
IC50 [4]: 15.8 µM
IC50 [5]: > 31.6 µM
Ki [6]: > 31.6 µM

C[N+](C)([O-])C[C@@H](c1ccc(O)cc1)C1(O)CCCCC1 [(R)—O-desmethyl-venlafaxine-N-oxide, O-Desmethyl-R-venlafaxine N-oxide]
Ki [1]: > 31.6 µM
Ki [2]: 10 µM
IC50 [3]: > 31.6 µM
IC50 [4]: 39.8 µM
IC50 [5]: > 31.6 µM
Ki [6]: > 31.6 µM

COc1ccc(C(C[N+](C)(C)[O-])C2(O)CCCCC2)cc1 (racemic) [Venlafaxine-N-oxide, (R,S)-1-[2-oxido-(dimethylamino)-1-(4-methoxyphenyl)ethyl]-cyclohexanol]
Noradrenaline binding pKi [1]: <4.5
Serotonine binding pKi [2]: 5.5
Brain/plasma ratio ([8]; i.v. 1 mg/kg): 0.1
bioavailability ([8]; i.v., 10 mg/kg p.o. against 1 mg/kg i.v.): 23.3%
Conversion in vivo after administration ([8]; mice): reduced to the parent compound
Time after which venlafaxine concentrations in plasma and brain exceed those of the N-oxide ([8]; mice, after i.v. administration of venlafaxine-N-oxide): Approximately one hour
Factor by which venlafaxine concentrations in plasma and brain are higher than those of the N-oxide ([8]; mice, after oral administration of venlafaxine-N-oxide): 10 to 100
Plasma concentration of Venlafaxine [8, 14]: 22 ng/mL
Plasma concentration of Venlafaxine-N-oxide [8, 14]: 173 ng/mL
Plasma concentration of Venlafaxine [8, 15]: 8.0 ng/mL
Plasma concentration of Venlafaxine-N-oxide [8, 15]: 39 ng/mL
Plasma concentration of Venlafaxine [8, 16]: 0.59 ng/mL
Plasma concentration of Venlafaxine-N-oxide [8, 16]: 7.3 ng/mL
Plasma concentration of Venlafaxine [8, 17]: 0 ng/mL
Plasma concentration of Venlafaxine-N-oxide [8, 17]: 0.16 ng/mL
Plasma concentration of Venlafaxine [8, 18]: 0 ng/mL
Plasma concentration of Venlafaxine-N-oxide [8, 18]: 0 ng/mL
Plasma concentration of Venlafaxine [8, 19]: 72 ng/mL
Plasma concentration of Venlafaxine-N-oxide [8, 19]: 840 ng/mL
Plasma concentration of Venlafaxine [8, 20]: 117 ng/mL
Plasma concentration of Venlafaxine-N-oxide [8, 20]: 183 ng/mL
Plasma concentration of Venlafaxine [8, 21]: 77 ng/mL
Plasma concentration of Venlafaxine-N-oxide [8, 21]: 38 ng/mL
Plasma concentration of Venlafaxine [8, 22]: 3.3 ng/mL
Plasma concentration of Venlafaxine-N-oxide [8, 22]: 0.75 ng/mL
Plasma concentration of Venlafaxine [8, 23]: 0.63 ng/mL
Plasma concentration of Venlafaxine-N-oxide [8, 23]: 0.12 ng/mL
Brain penetration ([8]; mouse, in vivo): hardly penetrates the brain
VD ([8]; mouse, in vivo, iv, 1 mg/kg): 3 L/kg
clearance ([8]; mouse, in vivo, iv, 1 mg/kg): 46.1 mL/min/kg
t1/2 ([8]; plasma, i.v. 1 mg/kg): 48 min
AUC0→end ([8]; plasma, i.v. 1 mg/kg, Tend = 7 hrs): 361.6 ng·h/mL
AUC0→∞ ([8]; plasma, i.v. 1 mg/kg): 361.7 ng·h/mL
Cmax (C0) ([8]; plasma, i.v. 1 mg/kg, extrapolated to T0 (time zero)): 1205.2 (C0)* ng/ml
Cmax ([8]; plasma, p.o. 10 mg/kg): 1040.0 ng/mL
t1/2 ([8]; plasma, p.o. 10 mg/kg): 186 min
AUC0→end ([8]; plasma, p.o. 10 mg/kg, Tend = 24 hrs): 841.6 ng·h/mL
AUC0→∞ ([8]; plasma, p.o. 10 mg/kg): 842.2 ng·h/mL
Dopamine inhibition pIC50 [3]: 4.5
Reduction to venlafaxine in TIM2 [9]: nearly quantitatively reduced to venlafaxine
Serotonine inhibition pIC50 [4]: 4.9
Noradrenaline inhibition pIC50 [5]: 4.9
Dopamine binding pKi [6]: <4.5
